Results on one compound are retold here after US7799804B2, “Therapeutic agents” (Astrazeneca AB, priority 2004, dated 2010).

As a reminder, the IC50 is the midpoint of a concentration-inhibition curve.

This experiment concerns the target T1, CB1 receptor (Homo sapiens, UniProt P21554).
T1 construct: expressed in transfected cells
As to the kind of experiment: [35S]-GTPγS binding assay on membranes from cells stably transfected with the CB1 gene, inhibition of agonist CP55940 (EC80). It is filed as biochemical. Particulars: half maximal inhibition of GTPγS binding in presence of EC80 concentration of CP55940; 30° C., 45 min.

Molecules are shown by their SMILES.

T1 sequence (P21554 whole entry): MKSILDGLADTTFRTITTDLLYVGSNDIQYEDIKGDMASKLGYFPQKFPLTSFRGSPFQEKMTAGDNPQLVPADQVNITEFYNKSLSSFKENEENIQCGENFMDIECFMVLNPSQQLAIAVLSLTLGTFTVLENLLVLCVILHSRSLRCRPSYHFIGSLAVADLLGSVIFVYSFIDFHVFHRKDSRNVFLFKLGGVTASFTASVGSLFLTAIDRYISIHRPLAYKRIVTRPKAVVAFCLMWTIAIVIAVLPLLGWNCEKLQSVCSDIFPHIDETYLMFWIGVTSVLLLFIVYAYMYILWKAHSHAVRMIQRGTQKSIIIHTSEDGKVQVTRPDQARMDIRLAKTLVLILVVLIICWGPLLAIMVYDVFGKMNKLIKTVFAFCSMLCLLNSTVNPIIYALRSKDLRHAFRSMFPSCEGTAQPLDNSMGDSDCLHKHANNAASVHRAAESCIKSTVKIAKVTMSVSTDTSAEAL
Description: 10 μg of membranes prepared from cells stably transfected with the CB1 gene were suspended in 200 μl of 100 mM NaCl, 5 mM MgCl2, 1 mM EDTA, 50 mM HEPES (pH 7.4), 1 mM DTT, 0.1% BSA and 100 μM GDP.
The reaction was allowed to proceed at 30° C. for 45 min. Samples were then transferred on to GF/B filters using a cell harvester and washed with wash buffer (50 mM Tris (pH 7.4), 5 mM MgCl2, 50 mM NaCl). Filters were then covered with scintillant and counted for the amount of [^35S]-GTPγS retained by the filter.
Activity is measured in the absence of all ligands (minimum activity) or in the presence of an EC80 concentration of CP55940 (maximum activity). These activities are set as 0% and 100% activity respectively. At various concentrations of novel ligand, activity is calculated as a percentage of the maximum activity and plotted. The data are fitted using the equation y=A+((B−A)/1+((C/x) UD)) and the IC50 value determined as the concentration required to give half maximal inhibition of GTPγS binding under the conditions used.

For `CCS(=O)(=O)Oc1ccc(-n2c(-c3ccc(Cl)cc3Cl)nc(C(=O)NN3CCCCC3)c2C)cc1` [Example 2, Ethanesulfonic acid 4-[2-(2,4-dichlorophenyl)-5-methyl-4-(piperidin-1-ylcarbamoyl)-imidazol-1-yl]-phenyl ester], the half-maximal inhibitory concentration (IC50) came to 28 nM.
